Entries after “also recorded” stand apart in the source; their conditions may differ.
Experiments:
[1] = Histopathological analysis of kidneys and livers after high-dose IV administration; format: in vivo, mice; conditions: 30 mg/kg IV; for histopathological examination of liver / kidney tissue discoloration: 24 hours after treatment; for overall acute toxicity assessment: high-dose groups
Experimental: The sustained high urine concentrations observed for CDCHD at 15 mg/kg IV raised the concern that accumulation might occur. We therefore performed histopathological analysis of livers and kidneys. A dose of 30 mg/kg of CHD and CDCHD was administered intravenously, and livers and kidneys were examined 24 hours after treatment to investigate signs of acute toxicity.
CHD and CDCHD were administered in single PK studies at the doses of 15 mg/kg and 30 mg/kg IV, at 15 mg/kg SC, and 15 mg/kg PO. Up to 25 µL of blood was collected from the lateral tail vein (n = 3 per time point) and time points t = 0.5, 1, 2, 4, and 8 hours. For 15 mg/kg IV- and PO-administered compounds, blood was also collected at time points t = 24 and 48 hours. For IV- and SC-administered compounds, blood was also collected at t = 0.25 hours. At t = 24 hours (15 mg/kg SC, 30 mg/kg IV) or 72 hours (15 mg/kg IV and PO), animals were euthanized to collect blood. At every blood collection, time point spontaneous urine was collected as well. Whole blood was collected into Eppendorf tubes coated with 0.5 M EDTA and immediately spun down at 15,870× g for 10 min at 4°C. Then, plasma was transferred into a new Eppendorf tube and stored at −80°C until analysis.
Approximately 3 µm thick sections of formalin-fixed, paraffin-embedded samples of liver and kidney were analyzed blinded, and randomized to the experimental groups by a trained veterinarian. […] Kidneys were analyzed for changes in the glomeruli (not found), tubular dilation (1 = mild or up to 20% of tubuli affected, 2 = moderate or 25-40% of tubuli affected, 3 = severe 50% or more), and inflammatory infiltrate in the pelvis (1 = mild, 2 = moderate, 3 = severe).

[2] = system: K. pneumoniae ATCC 43816; assay: Neutropenic thigh infection model in CD-1 mice; format: in vivo
Experimental: (§1) The inoculum for K. pneumoniae ATCC 43816 was prepared freshly as described previously to yield 1 × 10^4 cfu/mL ([56]). The inoculum of the E. coli ATCC 25922 was diluted from a frozen stock to 1.4 × 10^6 cfu/ml. N = 6 animals per group were used for both tested strains. N = 4 mice were used in the pre-treatment group in the neutropenic thigh infection model with E. coli ATCC 25922. Mice were rendered neutropenic by administration of 150 mg/kg and 100 mg/kg cyclophosphamide intraperitoneally on days −4 and −1, respectively. On the day of infection (day 0), mice received 30 µL of the inoculum of K. pneumoniae ATCC 43816 into each lateral thigh under isoflurane anesthesia, corresponding to 6 × 10^2 cfu/mouse. In the model with E. coli, mice received 50 µL of the inoculum of E. coli into each lateral thigh under isoflurane anesthesia, corresponding to 1.4 × 10^5 cfu/mouse. Whilst still under anesthesia, mice were administered a dose of Buprenorphine (0.03 mg/kg) subcutaneously for pain relief. 24 hours after infection, mice were euthanized by slowly introducing CO2 and cardiac puncture to remove blood from the heart immediately after death. Kidneys and thighs were aseptically removed. 24 hours after infection, the clinical score of every individual animal was assessed. Clinical scoring comprises the assessment of different parameters such as spontaneous behavior, posture, appearance, and provoked behavior. Each parameter was assessed with a score of 0 to 3 (ascending severity from 0 to 3). The humane endpoint was reached when the clinical score of a single parameter was 3 or if the total clinical score was higher than 8. Whole blood was collected into Eppendorf tubes coated with 0.5 M EDTA. Organs were homogenized in 0.9% NaCl solution. Organs and blood were plated onto agar plates in duplicates in serial dilutions and incubated at 37°C for 24 hours. 25 µL per dilution of the homogenized organ was spotted onto agar plates. In addition, 1 mL of homogenized organ is streaked onto an agar plate in technical duplicates. If no single colony is observed then, this would result in 0 cfu/mL. Thus, the threshold of detection is 0 log10 cfu/g. The groups used in the different neutropenic thigh infection models are found in Tables S4 through S7. In brief, levofloxacin with 3.3 mg/kg TID IP was used as a positive control antibiotic for the K. pneumoniae model, whereas ciprofloxacin with 20 mg/kg BID IV was used for the E. coli model, respectively. The rationale for TID dosing was based on the PK/PD index of fAUC/MIC for fluoroquinolones ([57] [–] [59]). […] Moreover, CHD and CDCHD were administered at 10 mg/kg SC QID (t = 1,3,5,7 hours), 15 mg/kg SC TID (t = 1,4,7 hours), and 50 mg/kg SC QD (t = 1 hour) (Tables S5 and S6). In the E. coli neutropenic thigh infection model, CHD and CDCHD, respectively, were administered at 50 mg/kg IV QD (t = 1 hour) and 15 mg/kg IV BID (t = 1 and 6 hours) (Table S7).
(§2) For the neutropenic thigh infection model with E. coli ATCC 25922, the thighs were regarded as two independent infection sites throughout the experiment. For statistical analysis, individual thighs (left and right) were treated as separate samples although these were not completely independent values. For the neutropenic thigh infection model with K. pneumoniae ATCC 43816, the individual thighs (left and right) were treated as one sample. For the efficacy models, the non-parametric Kruskal-Wallis test was used with GraphPad Prism 9.4.1. For the ascending urinary tract infection model, an ordinary one-way ANOVA with Dunnett’s multiple comparison test was used with GraphPad Prism 9.4.1.

[3] = system: E. coli ATCC 25922; assay: Neutropenic thigh infection model in CD-1 mice; format: in vivo; conditions: for bacterial burden in the thigh relative to stasis (pre-treatment group): 50 mg/kg IV QD; for tolerability: doses up to 50 mg/kg IV in the neutropenic thigh infection model
Experimental: as §1, §2

[4] = 24 hours after infection, CHD/CDCHD 10 mg/kg SC QD or BID, levofloxacin 3.3 mg/kg IP TID, vs vehicle
[5] = higher-dose studies: 10 mg/kg SC QID, 15 mg/kg SC TID, 50 mg/kg SC QD, levofloxacin 3.3 mg/kg IP TID

| Compound | histopathological examination of liver [1] | kidney tissue discoloration [1] | overall acute toxicity assessment [1] | bacterial burden in the kidney ([2]; 10 mg/kg SC BID, vs vehicle control, similar to levofloxacin, not statistically significant) | bacterial burden in blood ([2]; 10 mg/kg SC QID, 15 mg/kg SC TID, 50 mg/kg SC QD (all three groups)) | bacterial burden in the thigh ([2]; 50 mg/kg SC QD) | reduction of bacterial burden in the thigh ([2]; 50 mg/kg SC QD) | bacterial burden in blood [2, 4] | bacterial burden in the kidney [2, 5] | bacterial burden in the thigh relative to stasis (pre-treatment group) [3] | bacterial burden in kidney ([3]; both IV groups (15 mg/kg IV BID and 50 mg/kg IV QD)) | tolerability [3] | bacterial burden in the thigh ([2]; 10 mg/kg SC QID, 15 mg/kg SC TID, 50 mg/kg SC QD (all three dose levels)) | bacterial burden in the kidney ([2]; 50 mg/kg SC QD) | bacterial burden in blood ([2]; 50 mg/kg SC QD, similar range as levofloxacin, statistical significance missed) | bacterial burden in kidney ([3]; 15 mg/kg IV BID) | bacterial burden in the thigh ([3]; 15 mg/kg IV BID) | kill in the thigh compared to the pre-treatment group ([3]; 50 mg/kg IV) | reduction in the thigh compared to the vehicle ([3]; 50 mg/kg IV) |
| --- | --- | --- | --- | --- | --- | --- | --- | --- | --- | --- | --- | --- | --- | --- | --- | --- | --- | --- | --- |
| Cc1ccc2c(C)c3c(c(O)c2c1O)C(=O)C1(O)C(=O)C(C(N)=O)=C(O)C(N)C1C3 (centres unmarked) [CDCHD, 2-carboxamido-2-deacetyl-chelocardin] | sporadic extramedullary erythropoiesis and thrombopoiesis; also recorded: a moderate reduction of glycogen, moderate anisokaryosis, and a moderate amount of double-nucleated cells | yellow tissue discoloration | no immediate toxicity red flags | a reduction of bacterial burden was observed in the kidney | a reduction of bacterial burden was observed | a statistically significant reduction of bacterial burden in the thigh was observed | approximately one | The same was found in blood | reduced bacterial burden in the kidney to apparent sterilization | did not reduce bacterial load back to stasis | pronounced reduction of bacterial burden | well tolerated |  |  |  |  |  |  |  |
| CC(=O)C1=C(O)[C@H](N)[C@@H]2Cc3c(c(O)c4c(O)c(C)ccc4c3C)C(=O)[C@]2(O)C1=O [CHD, chelocardin] | sporadic extramedullary erythropoiesis and thrombopoiesis | yellow tissue discoloration | no immediate toxicity red flags |  |  |  |  | The same was found in blood | no statistically significant effect was observed | reduction of bacterial burden to levels below stasis |  | well tolerated | no effect was observed in the thigh | a slight reduction of bacterial burden | the bacterial burden was reduced | moderate reduction | reduced bacterial burden in the thigh | ~1 log10-unit | 5 log10-unit |

Reference: article PMC10783034, “Pharmacokinetic and pharmacodynamic evaluation of the atypical tetracyclines chelocardin and amidochelocardin in murine infection models” (Microbiology Spectrum, 2023)
